Reference: patent EP3892734B1, “SCREENING METHODS AND THERAPEUTIC APPLICATIONS BASED ON BACTERIAL MOTILITY INHIBITION” (Ludwig-Maximilians-Universität München, priority 2020, dated 2021)

Assay: plasma cytokine analysis by Bioplex multiplex bead assay in treated mice
Type: in vivo, C57B/L6 mice
Settings: chronic mouse infection model, BioRad Bioplex assay
Experimental: Before the infection and at the end of the treatment experiment, mouse blood was taken from the eye vein of a few selected mice (approximately 30 to 100 µl per mouse). The blood plasma was subsequently separated from cells using separation centrifugation devices (Sarstedt Microvette lithium-heparin). Plasma was diluted in Biorad Bioplex assay buffer to one fourth of the initial concentration and measured in the 23-Plex BioPlex bead-based multiplex cytokine assay (Biorad #m60009rdpd) according to the manufacturer's instructions and using the provided standards. Each sample was measured in a total volume of 50 µl in duplicate.

In the case of Cn1c(CSC(=N)N)c(Cl)c(=O)n1-c1ccccc1 [Active 2], the plasma cytokine loads is reported as “No significant change of plasma cytokine loads”.
